Assay results from patent US10822318B2, “Lactone-based probes and methods of use thereof” (REGENTS OF THE UNIVERSITY OF MINNESOTA, priority 2017, dated 2020).

Key:
PBP2x and PBP2b = experiment: Dual-labeling experiments, 7FL followed by 8T; type: cell-based, S. pneumoniae; details: both 5 μg/mL for 20 minutes
Experimental: S. pneumoniae E193 (Δpbp1b) cells were grown in BHI broth at 37° C. in an atmosphere of 5% CO2 to reach an OD620 of 0.2-0.25. Cells from 1.5 ml of culture were harvested by centrifugation (16,100×g for 2 min at RT) and washed with 1 ml of PBS, pH 7.4. Cell pellets were resuspended in 50 μl of PBS containing 5 μg/ml lactone-L-Phe-FL (7FL) and incubated at RT for 20 min. Cells were then washed with 1 ml PBS prior to suspension in 50 μl of 5 μg/ml solution of Lac-D-Phe-TAMRA (8T) in PBS. After incubation for 20 min at RT, cells were washed and resuspended in 100 μl of PBS containing 10 mg/ml of lysozyme. Cell lysis and sample preparation for SDS PAGE was followed as described earlier.

S. pneumoniae cells = experiment: 3D-SIM imaging of lactone probe labeled cells; type: cell-based; details: for late divisional cells showing central septal labeling: untreated, ≈41 cells examined
Experimental: Cells from an overnight culture were diluted to OD620 0.02 in 2 ml of fresh BHI prewarmed to 37° C. and incubated at 37° C. in an atmosphere of 5% CO2. At OD620 0.2, 1.5 ml of culture was added to a microfuge tube and centrifuged at room temperature for 5 min at 16000×g. The supernatant was discarded, the pellet was resuspended in 1 ml room temperature PBS, and the culture was centrifuged a second time. The supernatant was discarded and the pellet was resuspended in either 50 μl of PBS with 5 μg mL^−1 7FL or 100 μl PBS with 5 μg mL^−1 8T. The cells were incubated for 20 min at room temperature in the dark. After incubation the cells were spun and washed with 1 ml of PBS (7FL) or 1 ml of PBS containing 50 mM glucose (8T). The cells were spun a second time and washed with 200 μl of PBS (7FL) or 200 μl of PBS with 50 mM glucose (8T), and finally spun a third time and resuspended in 100 μl of cold (4° C.) GTE buffer (50 mM glucose, 20 mM Tris pH 7.5, 1 mM EDTA). The cells were spun down at 4° C., the supernatant was discarded, and the pellet was resuspended in 15 μl of Vectashield Hardest Antifade (Vector Labs) and kept on ice. 1.2 μl of cells in antifade was pipetted onto a clean coverslip, applied to a slide, and imaged via 3D-SIM. 3D-SIM was performed using the OMX 3D-SIM super-resolution system located in the Indiana University Bloomington Light Microscopy Imaging Center (www.indiana.edu/˜lmic/microscopes/index.html#OMX). The system used is equipped with four Photometrics Cascade II EMCCD cameras that allow simultaneous imaging of up to four colors, and is controlled by DV-OMX software, with image processing by Applied Precision softWoRx 6.0.0 software. Exposure times and % T settings for DAPI, Alexa 488, and Alexa 568 images were 5 ms and 100% for all three channels.
For pre-treatment with methicillin followed by lactone probe labeling, duplicate 2 ml cultures of each strain were created and incubated as described above. At OD620 0.12, methicillin was added to a final concentration of 0.1 μg mL^−1 to one culture for each strain, and the strains were placed back in the incubator. After 20 min, all cultures were harvested, labeled, and imaged as described above.
For labeling of cells with both lactone probes, the following changes were made: After a 20 min incubation with 7FL, the cells were spun down and washed once in 1 ml of PBS. The cells were spun again and resuspended in 100 μl of 8T in PBS at 5 μg mL^−1. The cells were incubated for 20 min at room temperature in the dark, and then washed and imaged as described above for 8T labeling.

| Substance | PBP visualized in dual labeling (PBP2x and PBP2b) | late divisional cells showing central septal labeling (S. pneumoniae cells; wild-type) | late divisional cells showing central septal labeling (S. pneumoniae cells; Δpbp1b) | cells with labeling excluded from the center of the division site (S. pneumoniae cells; after pre-treatment with 7FL, wild-type and Δpbp1b cells) |
| --- | --- | --- | --- | --- |
| (2S,3R)-β-lactone-L-Phe-fluorescein [Probe 7FL] | PBP2x | 85% | 73% | – |
| (2S, 3R)-β-lactone-D-Phe-TAMRA [Probe 8T] | PBP2b | 80.5% | 75.6% | > 83% |
